The test has as its system cGAS/STING signal pathway. The test can be described thus: cGAS/STING pathway activation after LIRD (Western blot). Format: in vivo, BALB/c mice. To be noted: 2 mg/kg. The procedure:
FIG. 8. Elevated protein levels of cGAS-STING pathway in BALB/c mice. The CGAS, STING and phosphorylated NF-κB (pp65). (FIGS. 8A-8C) Retinas were harvested and cGAS and STING protein levels were measured by Western blot analysis with β-actin as loading control and densitometry quantification. (FIGS. 8D-8E) Levels of phosphorylated NF-κB (p-NF-κB) were determined by Western blotting. Total NF-κB (p65) was used as an internal control and densitometry quantification. Each lane represents an individual mouse. (FIGS. 8F-8G) Photoreceptor cell apoptosis was evaluated by TUNEL on the retinal sections at the dose of 2 mg/kg in BALB/c mice and correlating quantitative analysis. Student's t-test was used (n=5, mean±SEM, *P<0.05, **<0.01).
To further evaluate the effect of RPE65-61 on retinal apoptosis, retinal sections from LIRD mice were used for Terminal deoxynucleotidyltransferase dUTP nick-end labeling (TUNEL) with the In Situ Cell Death Detection Kit (Millipore/sigma Cat #:11684795910). TUNEL-positive photoreceptor cells were quantified to evaluate the effects of RPE65-61 as described (Rajala, A. et al. 2018; Ma, H. et al. 2020).
In general terms: In western blotting, separated proteins are transferred to a membrane and probed.

With `N=S(=O)(CCN)c1cccc(OCC2CCCCC2)c1` (racemic) [RPE65-61, (±)-(2-aminoethyl) (3-(cyclohexylmethoxy)phenyl) (imino)-λ^6-sulfanone], the “activation of cGAS/STING signal pathway in RPE and photoreceptor cells” value is “protected RPE and photoreceptor cells from the activation of cGAS/STING signal pathway”.

The record behind these values is patent publication US20240245647A1, “ISOMEROHYDROLASE INHIBITOR FOR TREATMENT OF ATROPHIC FORM OF AGE-RELATED MACULAR DEGENERATION AND STARGARDT DISEASE” (The Trustees of Columbia University in the City of New York, priority 2021, published 2024).
